Active and inactive are the calls of the source. The rule behind the calls is not given here.
Columns and labels:
MGC-803 = assay: Antiproliferative activity against human MGC803 cells after 48 hrs by MTT assay; assay type: functional, cell-based; settings: MGC-803, 48 h
HepG2 [1] = assay: Downregulation of cyclin D1 protein levels in human HepG2 cells after 48 hrs by Western blot analysis; assay type: functional, cell-based
HepG2 [2] = assay: cells; settings: Homo sapiens, HepG2, 48 h
H22 [3] = assay: Antitumor activity against mouse H22 cells implanted in mouse assessed as tumor growth inhibition at 100 mg/kg, ip or ig qd administered for 10 consecutive days measured after 24 hrs post last dose relative to control; assay type: functional; settings: read-out: TGI
HepG2 [4] = assay: Upregulation of vimentin protein levels in human HepG2 cells at 2.5 to 10 ug/ml after 48 hrs by Western blot analysis; assay type: functional, cell-based
HepG2 [5] = assay: Downregulation of Ki67 protein levels in human HepG2 cells after 48 hrs by Western blot analysis; assay type: functional, cell-based
HepG2 [6] = assay: Synergistic downregulation of C-myc protein levels in human HepG2 cells at 5 ug/ml after 48 hrs in presence of sorafenib by Western blot analysis; assay type: functional, cell-based
HepG2 [7] = assay: Synergistic upregulation of vementin protein levels in human HepG2 cells at 5 ug/ml after 48 hrs in presence of sorafenib by Western blot analysis; assay type: functional, cell-based
HepG2 [8] = assay: Downregulation of C-myc protein levels in human HepG2 cells after 48 hrs by Western blot analysis; assay type: functional, cell-based
HepG2 [9] = assay: Synergistic downregulation of beta-catenin protein levels in human HepG2 cells at 5 ug/ml after 48 hrs in presence of sorafenib by Western blot analysis; assay type: functional, cell-based
HepG2 [10] = assay: Synergistic downregulation of cyclin D1 protein levels in human HepG2 cells at 5 ug/ml after 48 hrs in presence of sorafenib by Western blot analysis; assay type: functional, cell-based
H22 [11] = assay: Antitumor activity against mouse H22 cells implanted in mouse assessed as tumor growth inhibition at 50 mg/kg, ip or ig qd administered for 10 consecutive days measured after 24 hrs post last dose relative to control; assay type: functional; settings: read-out: TGI
H22 [12] = assay: Synergistic antitumor activity against mouse H22 cells implanted in mouse assessed as tumor growth inhibition at 50 mg/kg, ip or ig qd administered for 10 consecutive days measured after 24 hrs post last dose in presence of sorafenib relative to control; assay type: functional; settings: read-out: TGI
HeLa = assay: cells; settings: Homo sapiens, 48 h
HepG2 [13] = assay: Synergistic downregulation of Ki67 protein levels in human HepG2 cells at 5 ug/ml after 48 hrs in presence of sorafenib by Western blot analysis; assay type: functional, cell-based
HepG2 [14] = assay: Downregulation of beta-Catenin protein levels in human HepG2 cells after 48 hrs by Western blot analysis; assay type: functional, cell-based
HepG2 [15] = assay: Cell cycle arrest in human HepG2 cells assessed as decrease in accumulation of cells at S phase at 4 ug/ml after 48 hrs by propidium iodide staining-based flow cytometric analysis; assay type: functional
HepG2 [16] = assay: Upregulation of vimentin protein levels in human HepG2 cells at 4 ug/ml after 48 hrs by Western blot analysis; assay type: functional, cell-based
H22 [17] = assay: Antitumor activity against mouse H22 cells implanted in mouse assessed as tumor growth inhibition at 50 mg/kg, ip qd administered for 10 consecutive days measured after 24 hrs post last dose relative to control; assay type: functional; settings: read-out: TGI
HepG2 [18] = assay: Cell cycle arrest in human HepG2 cells assessed as increase in accumulation of cells at G0/G1 phase at 4 ug/ml after 48 hrs by propidium iodide staining-based flow cytometric analysis; assay type: functional

SMILES	IC50 (MGC-803) [µM]	Activity (HepG2 [1])	IC50 (HepG2 [2]) [µM]	inhibition in vivo at 100 mg/kg (H22 [3]) [%]	Activity (HepG2 [4])	Activity (HepG2 [5])	Activity (HepG2 [6])	Activity (HepG2 [7])	Activity (HepG2 [8])	Activity (HepG2 [9])	Activity (HepG2 [10])	inhibition in vivo at 50 mg/kg (H22 [11]) [%]	inhibition in vivo at 50 mg/kg (H22 [12]) [%]	IC50 (HeLa) [µM]	Activity (HepG2 [13])	Activity (HepG2 [14])	Activity (HepG2 [15])	Activity (HepG2 [16])	inhibition in vivo at 50 mg/kg (H22 [17]) [%]	Activity (HepG2 [18])
COc1cc(NC(=O)Nc2ccc(N3CCC(CN)CC3)c(C(F)(F)F)c2)c2c(c1O)-c1c(OC)c(OC)cc3c1[C@H](C2)N(C)CC3	11.1	Dose-dependent effect	7.51	73.8	Active	Dose-dependent effect	Active	Active	Dose-dependent effect	Active	Active	27.2	66.5	6.32	Active	Dose-dependent effect	–	–	–	–
CNC(=O)c1cc(Oc2ccc(NC(=O)Nc3ccc(Cl)c(C(F)(F)F)c3)cc2)ccn1 [SORAFENIB]	–	Dose-dependent effect	–	–	–	Dose-dependent effect	–	–	Dose-dependent effect	–	–	–	–	–	–	Dose-dependent effect	Active	Active	55.8 to 56.5	Active

Source: ChEMBL document CHEMBL4177667, “Design, synthesis, and anticancer properties of isocorydine derivatives” (Bioorg Med Chem, 2017)
